Measured values: PMC7044277 (Nature Communications, 2020)
Values joined by “and” are separate entries in the source; they are usually repeats but may differ in a detail not shown here. Equal values may be shown once.

Tests used:
Assay type in all cases: cell-based
Parameters in all cases: GPCRome screening signal at PTGIR / GPCRome screening signal at PTH1R / GPCRome screening signal at PTH2R / GPCRome screening signal at QRFP / GPCRome screening signal at RXFP2 / GPCRome screening signal at RXFP3 / GPCRome screening signal at RXFP4 / GPCRome screening signal at S1PR2 / GPCRome screening signal at S1PR3 / GPCRome screening signal at S1PR4 / GPCRome screening signal at S1PR5 / GPCRome screening signal at SCTR / GPCRome screening signal at SSTR2 / GPCRome screening signal at SSSTR / GPCRome screening signal at SSTR4 / GPCRome screening signal at SSTR5 / GPCRome screening signal at SUCNR1 / GPCRome screening signal at TA1 / GPCRome screening signal at TAAR2 / GPCRome screening signal at TAAR5 / GPCRome screening signal at TAAR6 / GPCRome screening signal at TAAR8 / GPCRome screening signal at TACR1 / GPCRome screening signal at TACR2 / GPCRome screening signal at TACR3 / GPCRome screening signal at TBXA2R / GPCRome screening signal at TSHR / GPCRome screening signal at UTS2R / GPCRome screening signal at VIPR2 / GPCRome screening signal at GPR68 no V2 Tail / GPCRome screening signal at GRM2 / GPCRome screening signal at GRM3: reference not given here
[1] = biological target: T1, 320 non-olfactory GPCRs (Homo sapiens, UniProt Q969N4); conditions: receptor TAAR8
T1 construct: expressed in transfected cells; host or cells: HTLA cells

[2] = biological target: T2, 320 non-olfactory GPCRs (Homo sapiens, UniProt Q8WXD0); conditions: receptor RXFP2
T2 construct: expressed in transfected cells; host or cells: HTLA cells

[3] = biological target: T3, 320 non-olfactory GPCRs (Homo sapiens, UniProt P49190); conditions: receptor PTH2R
T3 construct: expressed in transfected cells; host or cells: HTLA cells

[4] = biological target: T4, 320 non-olfactory GPCRs (Homo sapiens, UniProt Q96RJ0); conditions: receptor TA1
T4 construct: expressed in transfected cells; host or cells: HTLA cells

[5] = Fig_5f, single replicate values
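Wherever GPCRome agonism screen response is given: fold over basal response of each receptor without drug.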

T2 sequence (Q8WXD0 whole entry): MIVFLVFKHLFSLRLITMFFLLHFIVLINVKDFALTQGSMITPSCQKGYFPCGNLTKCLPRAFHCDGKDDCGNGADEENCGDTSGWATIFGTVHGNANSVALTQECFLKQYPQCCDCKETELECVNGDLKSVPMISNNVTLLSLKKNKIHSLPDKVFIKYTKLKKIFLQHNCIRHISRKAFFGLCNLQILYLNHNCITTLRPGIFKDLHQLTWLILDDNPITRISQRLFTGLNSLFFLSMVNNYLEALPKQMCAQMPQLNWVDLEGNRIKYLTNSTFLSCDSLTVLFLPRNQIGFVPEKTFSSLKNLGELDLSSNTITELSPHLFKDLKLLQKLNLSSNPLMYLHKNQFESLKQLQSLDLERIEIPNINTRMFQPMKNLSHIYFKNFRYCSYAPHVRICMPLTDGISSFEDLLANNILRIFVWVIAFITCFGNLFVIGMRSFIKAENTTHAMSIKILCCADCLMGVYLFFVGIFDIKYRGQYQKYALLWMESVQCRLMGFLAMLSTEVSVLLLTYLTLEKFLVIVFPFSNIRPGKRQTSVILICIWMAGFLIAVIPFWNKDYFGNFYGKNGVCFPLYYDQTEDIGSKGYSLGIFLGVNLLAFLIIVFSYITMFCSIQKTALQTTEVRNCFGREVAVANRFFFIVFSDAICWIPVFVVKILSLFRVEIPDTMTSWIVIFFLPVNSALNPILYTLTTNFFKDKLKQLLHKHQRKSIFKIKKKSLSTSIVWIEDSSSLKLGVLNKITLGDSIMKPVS
T1 sequence (Q969N4 whole entry): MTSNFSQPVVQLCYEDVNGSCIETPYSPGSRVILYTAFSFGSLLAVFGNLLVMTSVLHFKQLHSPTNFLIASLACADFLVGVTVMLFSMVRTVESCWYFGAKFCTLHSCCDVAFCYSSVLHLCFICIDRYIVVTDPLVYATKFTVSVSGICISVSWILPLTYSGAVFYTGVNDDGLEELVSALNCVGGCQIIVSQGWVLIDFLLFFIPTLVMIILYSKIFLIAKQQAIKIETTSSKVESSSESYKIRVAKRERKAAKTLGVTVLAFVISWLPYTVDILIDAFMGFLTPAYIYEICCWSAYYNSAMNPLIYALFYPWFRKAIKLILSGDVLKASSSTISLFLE
T3 sequence (P49190 25-550): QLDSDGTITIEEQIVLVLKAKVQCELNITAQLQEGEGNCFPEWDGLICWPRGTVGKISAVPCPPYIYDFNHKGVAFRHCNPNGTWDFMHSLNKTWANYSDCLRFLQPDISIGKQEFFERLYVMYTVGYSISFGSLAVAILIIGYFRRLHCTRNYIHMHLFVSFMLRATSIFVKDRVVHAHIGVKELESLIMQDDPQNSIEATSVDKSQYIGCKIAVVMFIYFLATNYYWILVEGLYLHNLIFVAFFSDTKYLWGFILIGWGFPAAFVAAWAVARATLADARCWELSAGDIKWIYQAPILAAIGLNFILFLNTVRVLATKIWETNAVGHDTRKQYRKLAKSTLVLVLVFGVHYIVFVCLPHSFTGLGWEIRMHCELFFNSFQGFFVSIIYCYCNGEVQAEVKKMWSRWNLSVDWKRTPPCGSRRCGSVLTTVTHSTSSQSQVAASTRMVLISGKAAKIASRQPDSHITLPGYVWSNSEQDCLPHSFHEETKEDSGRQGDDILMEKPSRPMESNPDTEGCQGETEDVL
T4 sequence (Q96RJ0 whole entry): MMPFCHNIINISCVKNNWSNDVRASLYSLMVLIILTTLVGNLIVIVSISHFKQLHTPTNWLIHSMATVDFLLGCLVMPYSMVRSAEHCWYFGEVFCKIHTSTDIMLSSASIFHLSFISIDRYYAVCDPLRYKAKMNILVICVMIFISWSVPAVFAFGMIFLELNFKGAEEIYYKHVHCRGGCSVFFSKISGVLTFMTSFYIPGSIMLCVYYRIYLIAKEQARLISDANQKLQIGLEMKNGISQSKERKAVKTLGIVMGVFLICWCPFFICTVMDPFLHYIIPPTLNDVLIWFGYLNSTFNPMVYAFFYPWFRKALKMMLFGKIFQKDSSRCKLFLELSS

Structure (SMILES) | GPCRome screening signal at TAAR8 [1, 5] | GPCRome screening signal at RXFP2 [2, 5] | GPCRome screening signal at PTH2R [3, 5] | GPCRome screening signal at TA1 [4, 5] | GPCRome agonism screen response ([1]; replicate values, Fig_4g) | GPCRome agonism screen response ([2]; replicate values, Fig_4g) | GPCRome agonism screen response ([3]; replicate values, Fig_4g) | GPCRome agonism screen response ([4]; replicate values, Fig_4g)
CCOc1ccccc1CCC(C)NCC1(O)CCCCC1.Cl (racemic) [Fig_5f] | 0.6115 and 0.4578 and 0.5144 and 0.5546 | 1.049 and 1.08 and 1.42 and 0.7752 | 0.8447 and 0.9374 and 0.7725 and 1.472 | 0.8481 and 0.8735 and 0.8675 and 0.7534 | – | – | – | –
CCOc1cccc2cc(C(C)NCC3(O)CCCCC3)oc12 (centres unmarked) [O4LE6] | – | – | – | – | 0.2595 and 0.5748 and 0.5852 and 0.7484 | 0.9912 and 0.8618 and 0.6803 and 0.6522 | 1.171 and 0.1179 and 1.638 and 1.06 | 0.6778 and 0.9948 and 0.7841 and 0.8752
